Laboratory results: US20100048696A1, “AGRICULTURAL DISEASE CONTROL AGENT” (Idemitsu Kosan Co., Ltd., priority 2007, published 2010)
Like-named read-outs stand apart in the source and are kept apart here.

How the values were obtained:
[1] = system: Clavibacter michiganense subsp. Nebraskense (ATCC27822); test: Basic test: cutting knife disinfection, ring rot pathogens; assay type: cell-based; conditions: knife immersed 5 seconds
[2] = system: bacteria pathogens and filamentous fungi pathogens; assay type: cell-based
[3] = system: Burkholderia plantarii; test: Material disinfection test; assay type: cell-based; conditions: 5 minutes
[4] = system: Burkholderia glumae; test: Material disinfection test; assay type: cell-based; conditions: 5 minutes
[5] = system: Erwinia carotovora var. cartovora; test: Test using potatoes: blackleg pathogenesis after cutting with disinfected knife; assay type: in vivo, potatoes Norin No. 1
[6] = system: Erwinia carotovora var. cartovora; test: Basic test: cutting knife disinfection, blackleg pathogens; assay type: cell-based; conditions: knife immersed 5 seconds
[7] = system: Ralstonia solanacearum; assay type: cell-based; conditions: 5 minutes
[8] = system: Pyricularia oryzae; assay type: cell-based; conditions: 5 minutes
[9] = system: Erwinia chrysanthemi; test: Material disinfection test; assay type: cell-based; conditions: 5 minutes
[10] = system: Botrytis cinerea; test: Material disinfection test; assay type: cell-based; conditions: 5 minutes
[11] = system: Fusarium oxysporum; test: Material disinfection test; assay type: cell-based; conditions: 5 minutes
[12] = system: Pythium ultimum; test: Material disinfection test; assay type: cell-based; conditions: 5 minutes
[13] = system: Rhizoctonia solani; test: Material disinfection test; assay type: cell-based; conditions: 5 minutes

`O=C1C=CC(=O)O1` [Maleic anhydride] was tested, and the “sterilization of ring rot pathogens (in words)” value ([1]; 2 to 10 times solutions) was “complete sterilization”, the “sterilization effect on ring rot pathogens (in words)” value ([1]; 25 to 50 times solutions) was “high sterilization effect” and the “sterilization in material disinfection test (in words)” value [2] was “complete sterilization”. For the same molecule, the “Average value of viable bacteria counts on all materials examined” value (“Average value of viable bacteria counts” below) ([3]; 2 times solution sprayed) was 0 cfu/ml, the “Average value of viable bacteria counts” value ([3]; 5 times solution sprayed) was 0 cfu/ml and the “Average value of viable bacteria counts” value ([3]; 25 times solution sprayed) was 0 cfu/ml. For the same molecule, the “Average value of viable bacteria counts” value ([3]; 50 times solution sprayed) was 0 cfu/ml, the “Average value of viable bacteria counts” value ([3]; 100 times solution sprayed) was 0 cfu/ml and the “Average value of viable bacteria counts” value ([3]; 200 times solution sprayed) was 7 cfu/ml. The “Average value of viable bacteria counts” value ([3]; 500 times solution sprayed) was 1.0 × 10^2 cfu/ml, the “Average value of viable bacteria counts” value ([4]; 2 times solution sprayed) was 0 cfu/ml and the “Average value of viable bacteria counts” value ([4]; 5 times solution sprayed) was 0 cfu/ml. The “Average value of viable bacteria counts” value ([4]; 25 times solution sprayed) was 0 cfu/ml, the “Average value of viable bacteria counts” value ([4]; 50 times solution sprayed) was 0 cfu/ml and the “Average value of viable bacteria counts” value ([4]; 100 times solution sprayed) was 0 cfu/ml. For the same molecule, the “Average value of viable bacteria counts” value ([4]; 200 times solution sprayed) was 69 cfu/ml, the “Average value of viable bacteria counts” value ([4]; 500 times solution sprayed) was 2.0 × 10^2 cfu/ml and the “sterilization in test using potatoes (in words)” value ([5]; 5 to 10 times solution) was “complete sterilization”. For the same molecule, the “sterilization effect in test using potatoes (in words)” value ([5]; 50 times solution) was “high sterilization effect”, the “sterilization of blackleg pathogens (in words)” value ([6]; 2 to 10 times solutions) was “complete sterilization” and the “sterilization effect on blackleg pathogens (in words)” value ([6]; 25 to 50 times solutions) was “high sterilization effect”. The “Average value of viable bacteria counts” value ([7]; 2 times solution sprayed) was 0 cfu/ml, the “Average value of viable bacteria counts” value ([7]; 5 times solution sprayed) was 0 cfu/ml and the “Average value of viable bacteria counts” value ([7]; 25 times solution sprayed) was 0 cfu/ml. For the same molecule, the “Average value of viable bacteria counts” value ([7]; 50 times solution sprayed) was 0 cfu/ml, the “Average value of viable bacteria counts” value ([7]; 100 times solution sprayed) was 0 cfu/ml and the “Average value of viable bacteria counts” value ([7]; 200 times solution sprayed) was 4 cfu/ml. For the same molecule, the “Average value of viable bacteria counts” value ([7]; 500 times solution sprayed) was 58 cfu/ml, the “average value of viable filamentous fungi counts on all materials examined” value ([8]; 2 times solution sprayed) was 0 cfu/ml and the “average value of viable filamentous fungi counts on all materials examined” value ([8]; 5 times solution sprayed) was 0 cfu/ml. The “average value of viable filamentous fungi counts on all materials examined” value ([8]; 25 times solution sprayed) was 0 cfu/ml, the “average value of viable filamentous fungi counts on all materials examined” value ([8]; 50 times solution sprayed) was 0 cfu/ml and the “average value of viable filamentous fungi counts on all materials examined” value ([8]; 100 times solution sprayed) was 0 cfu/ml. The “average value of viable filamentous fungi counts on all materials examined” value ([8]; 200 times solution sprayed) was 32 cfu/ml and the “average value of viable filamentous fungi counts on all materials examined” value ([8]; 500 times solution sprayed) was 1.5 × 10^2 cfu/ml.

With `O=C(O)CC(O)C(=O)O` (centres unmarked) [Malic acid] the “Average value of viable bacteria counts” value ([9]; 10 times solution sprayed) was 1.4 × 10^8 cfu/ml, the “Average value of viable bacteria counts” value ([9]; 50 times solution sprayed) was 1.2 × 10^8 cfu/ml and the “average value of viable filamentous fungi counts on all materials examined” value ([10]; 10 times solution sprayed) was 3.7 × 10^5 cfu/ml. For the same molecule, the “average value of viable filamentous fungi counts on all materials examined” value ([10]; 50 times solution sprayed) was 2.9 × 10^5 cfu/ml, the “Average value of viable bacteria counts” value ([3]; 10 times solution sprayed) was 1.0 × 10^7 cfu/ml and the “Average value of viable bacteria counts” value ([3]; 50 times solution sprayed) was 3.2 × 10^7 cfu/ml. The “Average value of viable bacteria counts” value ([4]; 10 times solution sprayed) was 3.6 × 10^8 cfu/ml, the “Average value of viable bacteria counts” value ([4]; 50 times solution sprayed) was 5.2 × 10^8 cfu/ml and the “average value of viable filamentous fungi counts on all materials examined” value ([11]; 10 times solution sprayed) was 1.8 × 10^5 cfu/ml. For the same molecule, the “average value of viable filamentous fungi counts on all materials examined” value ([11]; 50 times solution sprayed) was 4.5 × 10^5 cfu/ml, the “Average value of viable bacteria counts” value ([7]; 10 times solution sprayed) was 9.5 × 10^8 cfu/ml and the “Average value of viable bacteria counts” value ([7]; 50 times solution sprayed) was 7.8 × 10^8 cfu/ml. The “average value of viable filamentous fungi counts on all materials examined” value ([8]; 10 times solution sprayed) was 4.6 × 10^4 cfu/ml, the “average value of viable filamentous fungi counts on all materials examined” value ([8]; 50 times solution sprayed) was 5.0 × 10^4 cfu/ml and the “average value of viable filamentous fungi counts on all materials examined” value ([12]; 10 times solution sprayed) was 2.5 × 10^4 cfu/ml. The “average value of viable filamentous fungi counts on all materials examined” value ([12]; 50 times solution sprayed) was 4.3 × 10^4 cfu/ml, the “average value of viable filamentous fungi counts on all materials examined” value ([13]; 10 times solution sprayed) was 2.1 × 10^5 cfu/ml and the “average value of viable filamentous fungi counts on all materials examined” value ([13]; 50 times solution sprayed) was 1.8 × 10^5 cfu/ml.

`O=C(O)CCC(=O)O` [Succinic acid] was tested, and the “Average value of viable bacteria counts” value ([9]; 10 times solution sprayed) was 1.0 × 10^8 cfu/ml, the “Average value of viable bacteria counts” value ([9]; 50 times solution sprayed) was 1.0 × 10^8 cfu/ml and the “average value of viable filamentous fungi counts on all materials examined” value ([10]; 10 times solution sprayed) was 3.5 × 10^5 cfu/ml. For the same molecule, the “average value of viable filamentous fungi counts on all materials examined” value ([10]; 50 times solution sprayed) was 4.3 × 10^5 cfu/ml, the “Average value of viable bacteria counts” value ([3]; 10 times solution sprayed) was 2.5 × 10^7 cfu/ml and the “Average value of viable bacteria counts” value ([3]; 50 times solution sprayed) was 2.6 × 10^7 cfu/ml. For the same molecule, the “Average value of viable bacteria counts” value ([4]; 10 times solution sprayed) was 1.0 × 10^8 cfu/ml, the “Average value of viable bacteria counts” value ([4]; 50 times solution sprayed) was 1.5 × 10^8 cfu/ml and the “average value of viable filamentous fungi counts on all materials examined” value ([11]; 10 times solution sprayed) was 2.3 × 10^5 cfu/ml. For the same molecule, the “average value of viable filamentous fungi counts on all materials examined” value ([11]; 50 times solution sprayed) was 4.5 × 10^5 cfu/ml, the “Average value of viable bacteria counts” value ([7]; 10 times solution sprayed) was 1.1 × 10^9 cfu/ml and the “Average value of viable bacteria counts” value ([7]; 50 times solution sprayed) was 8.5 × 10^8 cfu/ml. The “average value of viable filamentous fungi counts on all materials examined” value ([8]; 10 times solution sprayed) was 3.2 × 10^4 cfu/ml, the “average value of viable filamentous fungi counts on all materials examined” value ([8]; 50 times solution sprayed) was 3.1 × 10^4 cfu/ml and the “average value of viable filamentous fungi counts on all materials examined” value ([12]; 10 times solution sprayed) was 7.8 × 10^3 cfu/ml. The “average value of viable filamentous fungi counts on all materials examined” value ([12]; 50 times solution sprayed) was 3.0 × 10^4 cfu/ml, the “average value of viable filamentous fungi counts on all materials examined” value ([13]; 10 times solution sprayed) was 1.5 × 10^5 cfu/ml and the “average value of viable filamentous fungi counts on all materials examined” value ([13]; 50 times solution sprayed) was 2.1 × 10^5 cfu/ml.
